According to US4923857A, “3-Alkenyl-1-azabicyclo(3.2.0)hept-2-ene-2-carboxylic acid compounds” (Fujisawa Pharmaceutical Company, Ltd., priority 1988, dated 1990):

System: S. aureus 209P JC-1
Assay: in vitro Antimicrobial Activity, two-fold agar-plate dilution method (MIC)
Assay type: cell-based
Settings: Staphylococcus aureus, HI-agar, 37° C., 20 hours, 10^6 viable cells per ml, read-out: MIC (minimal inhibitory concentration)
Procedure: in vitro Antimicrobial Activity was determined by the two-fold agar-plate dilution method as described below.
One loopful of an overnight culture of a test strain in Trypticase-soy broth (10^6 viable cells per ml) was streaked on heart infusion agar (HI-agar) containing graded concentrations of the test compound, and the minimal inhibitory concentration (MIC) was expressed in terms of […] after incubation at 37° C. for 20 hours.

SMILES: C/C(=C\[C@@H]1CCCN1)C1=C(C(=O)O)N2C(=O)[C@H]([C@@H](C)O)[C@H]2C1 [Example 4-(1), (5R,6S)-6-[(1R)-1-hydroxyethyl]-7-oxo-3-[(E)-2-{(2S)-pyrrolidin-2-yl}-1-methylethenyl]-1-azabicyclo [3.2.0]hept-2-ene-2-carboxylic acid]
- MIC: ≤ 0.025 µg/mL
